Reference: the METLIN SMRT retention time set (Domingo-Almenara et al. 2019)

Assay: gradient 5% acetonitrile 3 min, to 50% in 2 min, to 85% in 15 min, held 3 min, 100 µL/min
Settings: column: Zorbax Extend-C18 2.1 x 50 mm; eluents: water / acetonitrile, 0.1% formic acid
Procedure, shortened: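 Retention times of pure standards were taken from adduct peaks that were selected by computer and manually inspected. Over 3 months, mixtures of ~100 molecules were run by HPLC–quadrupole time-of-flight mass spectrometry in positive and negative ionization mode. The Zorbax Extend-C18 column (2.1 × 50 mm, 1.8 μm) ran at 100 μL/min in water and acetonitrile, each containing 0.1% formic acid, with 40 μL dead volume and 900 μL dwell volume.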

Row | RP-LC retention time [s] | SMILES
1 | 1310 | CCOc1ccc(C2Cn3nnc(-c4nc(-c5cccc(Br)c5)no4)c3CO2)cc1 (stereo not drawn)
2 | 779 | Cc1ccnc(Nc2nc(C)c(C(=O)N3CCC(C)CC3)s2)c1
3 | 630 | CC1CN=C2C=C(N3CCN(C(=O)Nc4ccc(Cl)cc4F)CC3)N=CN21 (stereo not drawn)
4 | 617 | CC(=O)NCc1nc2ccccc2n1CC(=O)Nc1ccccc1C
5 | 745 | Cc1[nH]c(C)c(S(=O)(=O)N2CCC(C(=O)NC3CCCCCCC3)CC2)c1C(=O)N1CCCC1
6 | 986 | Cc1ccc(C(=O)Nc2ccc3c(c2)Sc2ncccc2C(=O)N3C(C)C)cc1F
7 | 644 | CN1CCC2(CC1)CN(C(=O)Cn1c(=O)oc3ccccc31)Cc1ccccc1O2
8 | 894 | COc1ccc(NC(=O)Cn2cccc2-c2nnc(-c3ccccc3)o2)cc1
9 | 586 | Cc1cc(C)c2c(N3CCCC3)nc(C(=O)NC(C)c3ccccn3)nc2n1 (stereo not drawn)
10 | 827 | O=C(CN1C(=O)NC2(CCCCC2)C1=O)Nc1cc(F)cc(F)c1
11 | 716 | Cc1ccc(F)cc1NS(=O)(=O)c1cc2n(c1)CCCN(C)C2=O
12 | 814 | Cc1cccc(N2C(=O)CN(CCc3cccs3)[C@H]3CS(=O)(=O)C[C@H]32)c1
13 | 887 | CCCCNC(=O)C1CCN(S(C)(=O)=O)c2cc(Cl)ccc2O1 (stereo not drawn)
14 | 807 | Cc1ccccc1S(=O)(=O)N1CCC(CCC(=O)O)CC1
15 | 682 | Cn1cc(C(CNC(=O)Nc2ccccc2F)c2cccnc2)c2ccccc21 (stereo not drawn)
16 | 922 | CC(C)NC(=O)c1ccc(OCC2CCN(C(=O)c3ccc(F)c(Cl)c3)CC2)cc1
17 | 1280 | Cc1ccc(-c2csc(Cc3nc(-c4ccc5c(c4)OCO5)no3)n2)cc1C
18 | 688 | COc1ccc(CN2CC3(CCN(S(=O)(=O)c4cn(C)cn4)CC3)C2=O)cc1
19 | 1100 | O=C(CCc1cn(-c2ccccc2)nc1-c1ccc2c(c1)OCO2)NCCc1ccco1
20 | 978 | Cc1ccc(NC(=O)N2CCCC(C)(C(=O)NCc3ccccc3C)C2)cc1C (stereo not drawn)
21 | 1100 | Cc1ccc(-c2noc(Cn3ncn4nc(-c5cccs5)cc4c3=O)n2)cc1
22 | 1040 | O=C1CC(c2noc(-c3ccc(OC(F)(F)F)cc3)n2)CN1c1ccc(F)cc1 (stereo not drawn)

Row | RP-LC retention time [s] | SMILES
23 | 823 | Cc1nc(-c2ccc(N3CCN(C(=O)c4cccs4)CC3)nc2)sc1C
24 | 756 | O=C(CCc1ccc2c(c1)CN(S(=O)(=O)c1cccc3nsnc13)CCO2)NC1CC1
25 | 942 | CCCN1C(=O)C(C)(C(=O)NCc2ccccc2Cl)Oc2cccnc21 (stereo not drawn)
26 | 726 | CCOC(=O)N1CCN(C(=O)C2CCC(=O)N(c3ccc(OC)cc3)C2c2ccc(F)cc2)CC1 (stereo not drawn)
27 | 714 | O=C(NC1CCN(C(=O)N2C[C@H]3C[C@H](C2)[C@H]2CCCC(=O)N2C3)CC1)c1ccc2ccccc2n1
28 | 1060 | CSc1ccc(-c2nc3cnccn3c2Nc2cccc(Cl)c2C)cc1
29 | 592 | CC(=O)N1c2ccc(S(=O)(=O)N3CCCCC3)cc2CC1C(=O)NCCN1CCCC1 (stereo not drawn)
30 | 850 | CC(C)CNC(=O)c1n[nH]c2c1CCCCCC2
31 | 955 | CCC(=O)N1c2ccc(S(=O)(=O)N3CCCCC3)cc2CC1C(=O)NCc1ccc(C)cc1 (stereo not drawn)
32 | 906 | Cc1ccccc1Nc1c(-c2ccccc2)nc2cnccn12
33 | 731 | COCC(=O)N1CC(c2nc(-c3ccc(F)cc3)no2)C2(CCOCC2)C1 (stereo not drawn)
34 | 804 | O=C1CC(C(=O)N2CCc3ccccc3C2)CN1CCc1c[nH]c2ccc(F)cc12 (stereo not drawn)
35 | 691 | Cc1ccc(-c2ncccc2CNS(=O)(=O)c2cccc(C#N)c2)cc1
36 | 827 | COc1ccc(C)cc1NC(=O)C1CCN(S(=O)(=O)c2ccc3c(c2)sc(=O)n3C)CC1
37 | 871 | COC(=O)c1ccccc1NC(=O)Cn1cccc(-c2nc(-c3ccc(OC)c(OC)c3)no2)c1=O
38 | 769 | Cc1ccn2cc(C(=O)N3CCN(c4cccc(C)c4C)CC3)nc2c1
39 | 1010 | CCN1C(=O)c2cc(S(=O)(=O)Nc3cccc(C)c3)ccc2Oc2cccnc21
40 | 655 | O=C(O)c1cccnc1NCc1cccc(F)c1
41 | 669 | Cc1ccccc1-c1nc2cnccn2c1NCCC(=O)NCc1ccccc1
42 | 858 | COc1ccc(NC(=O)C2CCc3nc(N4CCOCC4)ncc3C2)cc1C(F)(F)F (stereo not drawn)
43 | 740 | O=C(NCCc1csc(-c2cccs2)n1)C1CCN(C(=O)c2ccccc2)CC1
44 | 571 | CCCN(C)C(=O)CCC1CCN(c2cc(NCC)ncn2)CC1

Row | RP-LC retention time [s] | SMILES
45 | 673 | O=C(Cc1ccsc1)N1CCC(Nc2ncnc3c2CCC3)CC1
46 | 833 | CCCn1cc(S(=O)(=O)NCc2cccs2)c2cccnc21
47 | 969 | Cc1ccc(Nc2c(-c3ccc(C)cc3)nc3cnccn23)cc1
48 | 1120 | COc1ccc2[nH]c3c(c2c1)CCN1C(=O)N(c2ccc(Cl)c(Cl)c2)C(=O)C31C (stereo not drawn)
49 | 760 | CCn1cc(CN2CCC(C(=O)NC3CCCc4ccccc43)CC2)c2cc(OC)ccc21 (stereo not drawn)
50 | 735 | Cc1cc(C)cc(C(=O)N2CCN(c3nc(C)cc(N4CCCC4)n3)CC2)c1
51 | 662 | COc1cc(NC(=O)N2CCC(n3c(CC(C)C)nc4cccnc43)CC2)cc(OC)c1OC
52 | 725 | COCCN1C(=O)Cc2ccccc2C1C(=O)N1CCCCC1 (stereo not drawn)
53 | 858 | COc1cccc(-c2cc(=O)n3c4ccccc4n(CC(=O)NC(C)C)c3n2)c1
54 | 792 | COc1cccc(NC(=O)c2cccn2Cc2noc(C)n2)c1
55 | 751 | Cc1ccc(-c2cc(C(=O)NCCCN3CCc4ccccc4C3)c(C)[nH]2)cc1C
56 | 615 | CCN1CCN(C(=O)C2CCN(S(=O)(=O)c3cc(-c4noc(C)n4)cs3)CC2)CC1
57 | 640 | CC(=O)N1CCc2cc(N3CC(C(=O)NCc4ccco4)CC3=O)ccc21 (stereo not drawn)
58 | 806 | Cn1cc(S(=O)(=O)N2CCOCC2)cc1C(=O)N1CCN(c2ccc(F)cc2)CC1
59 | 713 | CCOC(=O)C1CCN(c2cc3c(cc2NC(=O)NC(C)C)n(C)c(=O)n3C)CC1
60 | 1080 | CC(C)NC(=O)c1cc2c(s1)N(CC1CC1)CCCC2
61 | 655 | O=C(NCc1nc(-c2ccc3c(c2)ncn3C2CCCC2)no1)c1ccco1
62 | 639 | O=C(CCCc1ccccc1)NC1CCN(c2nnc3ccc(Cl)cn23)CC1
63 | 803 | Cc1ccc(-c2nccn3cc(C(=O)NC4CC4)nc23)cc1
64 | 594 | Fc1cccc2sc(NCc3ccccn3)nc12
65 | 1170 | CCn1c(=O)oc2cc(-c3noc(-c4ccc(Cl)cc4OC)n3)ccc21
66 | 853 | Cc1sc(-c2noc(C3CC3)n2)cc1S(=O)(=O)N1CCC(C(=O)N2CCOCC2)CC1

Row | RP-LC retention time [s] | SMILES
67 | 889 | Cc1ccccc1C(=O)NCCc1c[nH]c2ccc(Cl)cc12
68 | 595 | Cn1cc(CCN2CCC(C(=O)NCc3cccs3)CC2)c2cccnc21
69 | 972 | Cc1ccc(-c2nc3cnccn3c2Nc2cccc(C(F)(F)F)c2)cc1
70 | 942 | CCNS(=O)(=O)c1cccnc1Nc1ccc(F)cc1
71 | 558 | Cc1cccc2nnc(N3CCC(C(=O)NCc4ccc(N5CCCCC5)cc4)CC3)n12
72 | 1030 | Cc1ccccc1Nc1c(-c2ccc(Cl)cc2Cl)nc2cnccn12
73 | 748 | COc1ccc(N2CCN(C(=O)c3[nH]c(C)c(S(=O)(=O)N4CCCC4)c3C)CC2)cc1
74 | 728 | Cc1ccc(NC(=O)N2CCCC2c2c(C)noc2C)cc1 (stereo not drawn)
75 | 944 | CCCNC(=O)C1=Cc2cc(Br)ccc2OC=C1
76 | 1100 | COCCn1c(SCc2nc(-c3ccc(C)cc3)no2)nc2cc3c(cc2c1=O)OCO3
77 | 608 | O=C(c1cc(-c2ccncc2)n[nH]1)N1CCCC(C(=O)N2CCc3ccccc3C2)C1 (stereo not drawn)
78 | 635 | O=c1cc(CSc2nc(NCc3ccc4c(c3)OCO4)c3ccccc3n2)nc2ccccn12
79 | 746 | CN(C)C(=O)C1CCN(S(=O)(=O)Cc2ccc(Cl)cc2)CC1
80 | 733 | CCOC(=O)c1oc2ccc(S(=O)(=O)N3CCCC(CN4CCCC4)CC3)cc2c1C (stereo not drawn)
81 | 764 | O=C1CCCc2cc(S(=O)(=O)NCc3cccc(Br)c3)ccc2N1
82 | 683 | CCOC(=O)c1c(C)[nH]c(C(=O)N2CCC(CC(=O)NC(C)C)CC2)c1C
83 | 840 | Cc1ccc(NS(=O)(=O)c2cc3c4c(c2)CCC(=O)N4CCC3)c(C)c1
84 | 800 | COc1ccc(S(=O)(=O)NC2CCN(c3ccc(=O)n(CC4CC4)n3)C2)cc1Cl (stereo not drawn)
85 | 1170 | CN(C)c1ccc(/C=C2\Cc3ccccc3C2=O)cc1Br

Row | SMILES | RP-LC retention time [s]
86 | CCc1ccc(-n2nnc(C(=O)N3CCC4(CC3)OCCO4)c2-c2cccnc2)cc1 | 783
87 | C=C[C@]12CN(C)C3C4COC(CC41)[C@]1(C(=O)Nc4ccccc41)[C@@H]32 (stereo partly drawn) | 551
88 | O=C1/C(=C/c2ccccc2)C[C@@]2(O)[C@H]3Cc4ccc(O)c5c4[C@@]2(CCN3CC2CC2)[C@H]1O5 | 724
